Experiments:
Male C57/BL6N mice = test: Heart rate on odor presentation (radio-telemetry); type: in vivo, mouse; conditions: filter paper scented with 271 μmol odor
Description: An influence of a thiazoline-related compound and an odor molecule that induces learned fear on the heart rate was analyzed. A radio-telemetry device for monitoring biological parameters (manufactured by Physiotel) was surgically implanted in the abdomen of male C57/BL6N mice (about 3 months old). The mice were subjected to the following experiment after about 10 days of recovery period. Each mouse was placed in a test cage and, after acclimation for 10 min, a filter paper dropped with water was presented for 10 min, after which a filter paper scented with 271μmol of a thiazoline-related compound (2-methyl-2-thiazoline; 2MT) or an odor molecule that induces learned fear (anisole) was presented for 20 min. The information of heart rate was recorded every 10 sec using Dataquest A.R.T. software (DataScience international). The value of the heart rate change was calculated as the difference between the heart rate for 10 min when water was presented and the mean heart rate for 20 min when each odor molecule was presented, and the change in the heart rate without odor was set to 0. The mice presented with the odor that induces learned fear were trained to associate the anisole odor with electric shock one day before the measurement, whereby the mice learned to feel learned fear against the smell of anisole.

C57/BL6N male mice [1] = test: Respiratory rate on odor presentation (pulse oximeter); type: in vivo, mouse; conditions: filter paper scented with 271 μmol odor, 20 min
Description: An influence of a thiazoline-related compound and an odor molecule that induces learned fear on the respiratory rate was analyzed. The respiratory rate was analyzed using a pulse oximeter (Mouse Oxplus; STARR Life Science). A pulse oximeter was attached to the neck of C57/BL6N male mice (about 3-month-old) from about 1 week before the test and the mice were acclimated by repeating this operation. The mice were anesthetized with pentobarbital (50 mg/kg, i.p.) 2 days before the test, and the neck hair was depilated with depilatory cream. On the day of testing, an oximeter probe was attached to the shaven neck. After confirming that the signal became stable, the no odor baseline was measured for 10 min, changes in the respiratory rate when the thiazoline-related compound (2MT) or neutral odor (Eugenol; Eug) was presented was measured for 20 min (each n=6). The odors were presented by placing filter papers scented with 271 μmol of odor in the test cage. The oximeter signal was obtained at 1 Hz.

[2] = tested on: Skin ischemia-reperfusion injury model mouse; test: Skin ischemia-reperfusion injury (pressure ulcer) model, wound area; type: in vivo; conditions: odor 100 μl (104 mmol) 30 min before and during 12 hr of pinching the skin between magnets, versus no odor
Description: Skin ischemia-reperfusion injury model mouse was generated as follows according to the method of Uchiyama et al. (Uchiyama et al., Sci Rep 5:9072, 2015). The back hair of C57/BL6N male mice (about 3-month-old) was shaved in the same manner as in Example 1, 2-3 days before the test. On the day of the test, the mice were each placed in a highly sealed cage, and a filter paper scented with 100 μl (104 mmol) of the thiazoline-related compound (2MT) was placed in the breeding cage, and the odor was presented for 30 min. As a control, a filter paper dropped with water was presented for 30 min (no odor). After 30 min, the mouse was taken out from the cage, the dorsal skin was pinched between two circular magnets and the mouse was returned to the highly sealed cage. Furthermore, a filter paper scented with 100 μl (104 mmol) of 2 MT or water was placed in the highly sealed cage, and the mouse was left for 12 hr. […] The condition of the skin on the back, which was pinched between magnets, was recorded by taking photographs every day. Based on the obtained images, the wound area was quantified with image analysis software (Photoshop, Adobe). Furthermore, changes in the core body temperature when the odor was presented under the same conditions as in this Example were measured by the same experimental method as in Example 2.

C57/BL6N male mice [3] = test: Core body temperature under the odor conditions of Example 14; type: in vivo, mouse; conditions: odor presentation conditions of Example 14
Description: An influence of a thiazoline-related compound and an odor molecule that induces learned fear on the core body temperature was analyzed. A radio-telemetry device for monitoring biological parameters (manufactured by Physiotel) was surgically implanted in the abdomen of male C57/BL6N mice (about 3 months old). The mice were subjected to the following experiment after about 10 days of recovery period. […] The information of body temperature was recorded every 10 sec using Dataquest A.R.T. software (DataScience international). The value of the core body temperature change was calculated as the difference between the mean core body temperature for 10 min when water was presented and the mean core body temperature for 20 min when each odor molecule was presented, and the change in the core body temperature without odor was set to 0. […]
Skin ischemia-reperfusion injury model mouse was generated as follows according to the method of Uchiyama et al. (Uchiyama et al., Sci Rep 5:9072, 2015). […] The condition of the skin on the back, which was pinched between magnets, was recorded by taking photographs every day. Based on the obtained images, the wound area was quantified with image analysis software (Photoshop, Adobe). Furthermore, changes in the core body temperature when the odor was presented under the same conditions as in this Example were measured by the same experimental method as in Example 2.

[4] = tested on: Trpa1 knockout mice and littermate hetero mice; test: Oxygen consumption on odor presentation, Trpa1 knockout and hetero mice; type: in vivo, mouse; conditions: two filter papers scented with 271 μmol
Description: (§1) An influence of a thiazoline-related compound on the oxygen consumption was analyzed. The oxygen consumption was analyzed using an energy metabolism measurement device for small animals (ARCO-2000; ARCO SYSTEM). About 3-month-old C57/BL6N male mice were each placed in a measuring chamber and, after acclimation for about 2 hr, a thiazoline-related compound (2MT) was presented. The odors were presented by placing filter papers scented with 100 μl (104 mmol) of odor molecules in the measuring chamber. As a control, an experiment in which a filter paper dropped with saline was presented to the mice was also performed. The oxygen consumption was measured every one min. Mean oxygen consumption was calculated as the mean of 10 min before presenting odor and 20 min after presenting odor.
The oxygen consumption was measured using an energy metabolism measurement device for small animals as in Example 8.About 3-month to 6-month-old Trpa1 knockout mice and littermate hetero mice were each placed in a measuring chamber of the energy metabolism measurement device for small animals and, after acclimation for about 2 hr, a thiazoline-related compound (2MT) was presented. The odor was presented by placing two filter papers scented with 271 μmol of thiazoline-related compound (2MT) in the measuring chamber.

mice = test: Oxygen consumption after intraperitoneal injection; type: in vivo, mouse; conditions: versus saline
Description: as §1
Changes in the oxygen consumption induced by intraperitoneal injection of heterocyclic compounds (2MT and Thiomorpholine (TMO) were measured by a method similar to that in Example 8.

## CC1=NCCS1 [2MT, 2-methyl-2-thiazoline]
Male C57/BL6N mice
  time to decrease in the heart rate to half: ≤ 3 min
Male C57/BL6N mice; 20 min, versus no odor
  changes in the heart rate: clear decrease in the heart rate
C57/BL6N male mice [1]
  respiratory rate: reduced the respiratory rate by about half
[2]
  formation of pressure ulcer (wound area): formation of pressure ulcer significantly decreased
C57/BL6N male mice [3]
  core body temperature: remarkable decrease in the core body temperature
[4]; Trpa1 knockout mice (Trpa1−/−)
  oxygen consumption per body weight: the oxygen consumption did not decrease
[4]; control mice (Trpa1+/−)
  oxygen consumption per body weight: the oxygen consumption was decreased
mice
  oxygen consumption: suppress the oxygen consumption

From US20240382497A1, “PROPHYLACTIC OR THERAPEUTIC AGENT FOR HYPOXIC INJURY, ISCHAEMIA-REPERFUSION INJURY AND INFLAMMATION, CELL PROTECTION AGENT FOR TRANSPLANTATION, AND BIO-PRESERVATION AGENT” (priority 2018, published 2024)
